Measurements reported in patent US10022387B2, “Aza-heteroaryl compounds as PI3K-gamma inhibitors” (Incyte Corporation, priority 2015, dated 2018).

How the values were obtained:
[1] = test system: Phosphorylated Ribosomal Protein S6 (RPS6) in THP-1 cells; assay: THP-1 RPS6 ELISA Assay; format: cell-based; details: Homo sapiens, 2 hours with compound, 10 nM MCP-1 for 15 minutes, read-out: THP p-RPS6 ELISA IC50
Description: To measure the Phosphorylated Ribosomal Protein S6 (RPS6) in cell lysates, THP-1 cells (Human Acute Monocytic Leukemia) are purchased from ATCC (Manassas, Va.) and maintained in RPMI with 10% FBS (Gibco/Life Technologies, Carlsbad, Calif.). For the assay, THP-1 cells are serum starved overnight in RPMI, then plated in RPMI (2×10^5 cells/well in 90 μL) into 96-well flat-bottom tissue culture treated plates (Corning, Corning, N.Y.), in the presence or absence of a concentration range of test compounds. Covered plates are incubated for 2 hours at 37° C., 5% CO2 then treated with or without 10 nM MCP-1 (MYBioSource, San Diego, Calif.) for 15 minutes at 37° C., 5% CO2. Plates are centrifuged at 1600 RPM and supernatants are removed. Cells are lysed in Lysis Buffer (Cell Signaling, Danvers, Mass.) with Protease Inhibitor (Calbiochem/EMD, Germany), PMSF (Sigma, St. Louis, Mo.), HALTS (Thermo Fisher, Rockford, Ill.) for 30 min on wet ice. Cell lysates are frozen at −80° C. before testing. The lysates are tested in the Human/Mouse/Rat Phospho-RPS6 ELISA (R&D Systems, Inc. Minn, Minn.). The plate is measured using a microplate reader (SpectraMax M5—Molecular Devices, LLC Sunnyvale, Calif.) set to 450 nm with a wavelength correction of 540. IC50 determination is performed by fitting the curve of inhibitor percent inhibition versus the log of the inhibitor concentration using the GraphPad Prism 5.0 software.

[2] = molecular target: PI3Kδ (p110δ/p85α) Recombinant Human Protein (Homo sapiens (Human), UniProt O00329); assay: PI3Kδ Scintillation Proximity Assay; format: biochemical; details: 20 μM PIP2, 2 μM ATP, 3.4 nM PI3Kδ, 120 min; read-out: PI3K-delta SPA IC50
Chain of PI3Kδ (p110δ/p85α) Recombinant Human Protein (O00329 whole entry): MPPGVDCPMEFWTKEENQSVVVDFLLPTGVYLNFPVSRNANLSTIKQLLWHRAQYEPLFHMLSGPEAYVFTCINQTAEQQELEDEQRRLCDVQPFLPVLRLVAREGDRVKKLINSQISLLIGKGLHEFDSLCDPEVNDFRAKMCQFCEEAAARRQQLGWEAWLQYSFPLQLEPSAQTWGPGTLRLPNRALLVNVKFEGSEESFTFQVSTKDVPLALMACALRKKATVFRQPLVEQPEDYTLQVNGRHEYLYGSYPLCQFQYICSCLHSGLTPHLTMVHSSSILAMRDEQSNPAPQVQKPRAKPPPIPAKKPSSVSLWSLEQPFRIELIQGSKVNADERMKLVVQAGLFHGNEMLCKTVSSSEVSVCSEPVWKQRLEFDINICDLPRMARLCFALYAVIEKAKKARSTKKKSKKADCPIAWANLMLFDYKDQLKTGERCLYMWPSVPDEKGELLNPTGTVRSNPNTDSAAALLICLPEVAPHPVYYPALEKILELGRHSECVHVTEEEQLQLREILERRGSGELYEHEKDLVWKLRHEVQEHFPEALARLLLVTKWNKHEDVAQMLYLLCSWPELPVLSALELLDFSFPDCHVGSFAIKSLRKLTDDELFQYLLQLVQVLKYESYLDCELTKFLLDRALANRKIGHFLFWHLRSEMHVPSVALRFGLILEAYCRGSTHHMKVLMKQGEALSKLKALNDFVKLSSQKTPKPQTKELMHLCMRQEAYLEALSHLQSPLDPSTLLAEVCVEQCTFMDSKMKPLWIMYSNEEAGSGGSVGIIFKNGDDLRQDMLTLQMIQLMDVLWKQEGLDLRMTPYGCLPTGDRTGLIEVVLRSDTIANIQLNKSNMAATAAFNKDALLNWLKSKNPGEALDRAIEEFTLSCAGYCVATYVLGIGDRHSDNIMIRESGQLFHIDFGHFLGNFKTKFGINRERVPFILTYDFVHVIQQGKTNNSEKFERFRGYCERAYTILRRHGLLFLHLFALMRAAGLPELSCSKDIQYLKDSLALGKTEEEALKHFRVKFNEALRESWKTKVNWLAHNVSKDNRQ
Chain of PI3Kδ (p110δ/p85α) Recombinant Human Protein (P27986 whole entry partner): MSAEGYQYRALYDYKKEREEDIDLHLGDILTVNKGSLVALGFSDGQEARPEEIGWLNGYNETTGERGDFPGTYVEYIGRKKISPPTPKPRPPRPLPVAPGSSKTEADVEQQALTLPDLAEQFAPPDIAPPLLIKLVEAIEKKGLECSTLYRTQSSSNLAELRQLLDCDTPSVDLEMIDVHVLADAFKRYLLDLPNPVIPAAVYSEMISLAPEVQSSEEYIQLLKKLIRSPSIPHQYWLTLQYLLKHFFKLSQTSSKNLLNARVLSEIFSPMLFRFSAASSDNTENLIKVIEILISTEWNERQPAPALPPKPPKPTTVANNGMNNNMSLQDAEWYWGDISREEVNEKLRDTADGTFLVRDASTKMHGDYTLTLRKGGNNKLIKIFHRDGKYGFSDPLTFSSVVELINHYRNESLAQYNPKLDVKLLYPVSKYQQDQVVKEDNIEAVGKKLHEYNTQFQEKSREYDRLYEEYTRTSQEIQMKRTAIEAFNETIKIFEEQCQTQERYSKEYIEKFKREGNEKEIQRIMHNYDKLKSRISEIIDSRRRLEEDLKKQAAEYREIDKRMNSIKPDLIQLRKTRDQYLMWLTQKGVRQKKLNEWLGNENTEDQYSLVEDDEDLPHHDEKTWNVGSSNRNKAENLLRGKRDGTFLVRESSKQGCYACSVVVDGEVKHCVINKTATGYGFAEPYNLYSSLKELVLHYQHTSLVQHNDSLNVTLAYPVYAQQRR
Source text: [γ-^33P]ATP (10 mCi/mL) and Wheat Germ Agglutinin (WGA) YSi SPA Scintillation Beads was purchased from Perkin-Elmer (Waltham, Mass.). Lipid kinase substrate, D-myo-Phosphatidylinositol 4,5-bisphosphate (PtdIns(4,5)P2)D (+)-sn-1,2-di-O-octanoylglyceryl, 3-O-phospho linked (PIP2), CAS 204858-53-7, was purchased from Echelon Biosciences (Salt Lake City, Utah). PI3Kδ (p110δ/p85α) Recombinant Human Protein was purchased from Eurofins (St. Charles, Mo.). ATP, MgCl2, DTT, EDTA, MOPS and CHAPS were purchased from Sigma-Aldrich (St. Louis, Mo.).
The kinase reaction was conducted in polystyrene 384-well Greiner Bio-one white plate from Thermo Fisher Scientific in a final volume of 25 μL. Inhibitors were first diluted serially in DMSO and added to the plate wells before the addition of other reaction components. The final concentration of DMSO in the assay was 2%. The PI3Kδ assay was carried out at room temperature in 20 mM MOPS, pH 6.7, 10 mM MgCl2, 5 mM DTT and CHAPS 0.03%. Reactions were initiated by the addition of ATP, the final reaction mixture consisted of 20 μM PIP2, 2 μM ATP, 0.5 μCi [γ-^33P] ATP, 3.4 nM PI3Kδ. […] After the plate sealing, plates were shaken overnight at room temperature and centrifuged at 1500 rpm for 10 min, the radioactivity of the product was determined by scintillation counting on Topcount (Perkin-Elmer). […]

| Compound | IC50 [1] [µM] | IC50 [2] [µM] |
| --- | --- | --- |
| CCS(=O)(=O)Nc1cncc(-c2ccc3nc(-c4nc5ccccc5[nH]4)oc3c2)c1 [Example 18, N-(5-(2-(1H-Benzo[d]imidazol-2-yl)benzo[d]oxazol-6-yl)pyridin-3-yl)ethanesulfonamide] | ≥ 5 | < 1 |
| O=S(=O)(Nc1cncc(-c2ccc3nc(-c4nc5ccccc5[nH]4)oc3c2)c1)c1cccc(F)c1 [Example 19, N-(5-(2-(1H-Benzo[d]imidazol-2-yl)benzo[d]oxazol-6-yl)pyridin-3-yl)-3-fluorobenzene-sulfonamide] | < 5 |  |
| Nc1ncc(-c2ccc3nc(-c4nc5ccccc5[nH]4)oc3c2)cc1C(F)(F)F [Example 56, 5-[2-(1H-Benzimidazol-2-yl)-1,3-benzoxazol-6-yl]-3-(trifluoromethyl)pyridin-2-amine bis(trifluoroacetate)] | ≥ 5 |  |
| c1ccc2[nH]c(-c3nc4ccc(-c5ccc6[nH]ncc6c5)cc4o3)nc2c1 [Example 49, 2-(1H-Benzimidazol-2-yl)-6-(1H-indazol-5-yl)-1,3-benzoxazole] | ≥ 5 |  |
| Cc1n[nH]c2ccc(-c3ccc4nc(-c5nc6ccccc6[nH]5)oc4c3)cc12 [Example 50, 2-(1H-Benzimidazol-2-yl)-6-(3-methyl-1H-indazol-5-yl)-1,3-benzoxazole] | ≥ 5 |  |

The next lines start with results.

| IC50 [1] [µM] | Compound | IC50 [2] [µM] |
| --- | --- | --- |
| < 5 | N#Cc1cncc(-c2ccc3nc(-c4nc5ccccc5[nH]4)oc3c2)c1 [Example 35, 5-(2-(1H-Benzo[d]imidazol-2-yl)benzo[d]oxazol-6-yl)nicotinonitrile] |  |
| < 1 | CCS(=O)(=O)Nc1cc(-c2ccc3nc(-c4nc5ccccc5[nH]4)oc3c2)cnc1OC [Example 79, N-(5-(2-(1H-Benzo[d]imidazol-2-yl)benzo[d]oxazol-6-yl)-2-methoxypyridin-3-yl)ethanesulfonamide bis(trifluoroacetate)] |  |
| < 1 | O=S(=O)(Nc1cc(-c2ccc3nc(-c4nc5ccccc5[nH]4)oc3c2)cnc1Cl)c1ccc(F)cc1 [Example 29, N-(5-(2-(1H-Benzo[d]imidazol-2-yl)benzo[d]oxazol-6-yl)-2-chloropyridin-3-yl)-4-fluorobenzene-sulfonamide] |  |
